US20160106102A1, “KNOWN AND NEW HETEROCYCLIC COMPOUNDS AS PEST CONTROL AGENTS” (BAYER CROPSCIENCE AKTIENGESELLSCHAFT, priority 2013, published 2016)
Where two headings read alike, the source gives them in different places.

Key:
Myzus persicae = Myzus persicae - sachet test; assay type: in vivo; details: 100% = all animals killed; for pest or weed control at 6 ppm / pest or weed control at 30 ppm: Myzus persicae, read-out: efficacy (kill in %)
Protocol: Myzus persicae—Sachet Test Solvent: 2% by vol. of N-methylpyrrolidone • 2% by vol. of diacetone alcohol To produce an appropriate active ingredient formulation, the active ingredient is mixed with the specified amounts of solvent and the concentrate is diluted to the desired concentration with water. The active ingredient formulation is added to a specific nutrient medium in the desired concentration by pipetting. This plate is sealed and combined with a further plate populated with the green peach aphid (Myzus persicae). After the desired time, the kill in % is determined. 100% means that all the animals have been killed; 0% means that no animals have been killed.

[1] = log P determination by LC-MS in the acidic range; assay type: physicochemical
From the text: The LC-MS determination in the acidic range is effected at pH 2.7 using 0.1% aqueous formic acid and acetonitrile (contains 0.1% formic acid) as eluents, linear gradient from 10% acetonitrile to 95% acetonitrile. Alternatively, the determination is effected in the acidic range at pH 2.3 using 0.1% aqueous phosphoric acid and acetonitrile as eluents; linear gradient from 10% acetonitrile to 95% acetonitrile.

[2] = application rate of 30 ppm in nutrient medium
[3] = application rate of 6 ppm in nutrient medium
[4] = reversed-phase HPLC column (C18), pH 2.7, values given in the synthesis examples and NMR lists, read-out: HPLC-MS: log P
[5] = pH 2.7, LC-MS in the acidic range, read-out: log P (acid)
[6] = pH 2.7, values given in the synthesis examples and NMR lists, read-out: HPLC-MS: log P

Row | Structure (SMILES) | efficacy (kill in %) (Myzus persicae; [2]) [%] | log P (acid) ([1]; LC-MS in the acidic range) | efficacy (kill in %) (Myzus persicae; [3]) [%] | also measured
1 | Cc1cc(NC(=O)c2cccnc2)nn1-c1ccccc1 [Compound I-1-349] | 100 | 1.7 | – | –
2 | Cc1cc(NC(=O)c2cncc(F)c2)nn1C(C)(C)C [Compound I-1-348] | 80 | 2.13 | – | –
3 | Cc1cc(NC(=O)c2cncc(Br)c2)nn1Cc1ccc(F)cc1 [Compound I-1-83] | 100 | 2.67 | – | –
4 | O=C(Nc1cc(Cl)n(-c2ccccc2)n1)c1cccnc1 [Compound I-1-274] | 100 | 2.1 | – | –
5 | CC(C)(C)c1ccc(Cn2ccc(NC(=O)c3ccc(Cl)nc3)n2)cc1 [Compound I-1-86] | 100 | 3.54 | – | –
6 | Cc1cc(C)nc(-n2nc(NC(=O)c3cncc(F)c3)cc2C)n1 [Compound I-1-132] | 100 | 2.04 | – | –
7 | CCOC(=O)Cn1nc(NC(=O)c2cccnc2)cc1C [Compound I-1-24] | 100 | 0.89 | 100 | –
8 | Cc1cc(NC(=O)c2cccnc2)nn1C(=O)NC(C)(C)C [Compound I-1-319] | 100 | 1.99 | 100 | –
9 | CNS(=O)(=O)n1nc(NC(=O)c2cccnc2)cc1C [Compound I-1-257] | 100 | 0.55 | – | –
10 | Cc1cc(NC(=O)c2ccc(Cl)nc2)nn1Cc1ccccc1F [Compound I-1-93] | 100 | 2.59 | – | –
11 | Cc1cc(NC(=O)c2cccnc2)nn1CC=C(Cl)Cl [Compound I-1-238] | 100 | 1.83 | 100 | –
12 | Cc1cn(CC#N)nc1NC(=O)c1cccnc1 [Compound I-1-199] | 100 | 0.37 | – | –
13 | Cc1cc(NC(=O)c2cccnc2)nn1Cc1nc2cc(Cl)ccc2o1 [Compound I-1-340] | 100 | 2 | 100 | –
14 | Cc1cc(NC(=O)c2cccnc2)nn1-c1ccccc1Cl [Compound I-1-213] | 100 | 1.86 | – | –
15 | Cc1cc(NC(=O)c2cccnc2)nn1Cc1ccc(F)cc1 [Compound I-1-62] | 100 | 1.88 | 100 | –
16 | O=C(Nc1ccn(Cc2ccccc2C(F)(F)F)n1)c1cccnc1 [Compound I-1-91] | 100 | 2.09 | – | –
17 | CC(NC(=O)Cn1nnc(NC(=O)c2cccnc2)n1)c1ccccc1 (centres unmarked) [Compound I-4-6, N-(2-{2-Oxo-2-[(1-phenylethyl)amino]ethyl}-2H-tetrazol-5-yl)nicotinamide] | – | – | – | pest or weed control at 6 ppm (Myzus persicae; [3]): 100%; pest or weed control at 30 ppm (Myzus persicae; [2]): 100%; chromatographic logP ([1]; reversed-phase HPLC column (C18), pH 2.7, Table 4, HPLC on reversed-phase column (C 18), 55° C., acidic range (pH 2.7 or pH 2.3), read-out: log P (acid)): 1.34; chromatographic logP [1, 4]: 1.34
18 | Cc1cc(NC(=O)c2cccnc2)nn1C(=O)N(C)S(=O)(=O)c1ccccc1 [Compound I-1-263] | 100 | 2.13 | 100 | –
19 | Cc1cc(NC(=O)c2cccnc2)nn1CS(=O)(=O)c1ncccn1 [Compound I-1-236] | 100 | 0.74 | 100 | –
20 | Cc1cc(NC(=O)c2cccnc2)nn1C(C)(C)C [Compound I-1-347] | 100 | 1.61 | 80 | –
21 | Cc1cc(NC(=O)c2cccnc2)nn1CC(=O)Cc1ccccc1Cl [Compound I-1-247] | 100 | 1.92 | 100 | –
22 | Cc1cc(NC(=O)c2cncc(Br)c2)nn1Cc1ccccc1 [Compound I-1-99] | 100 | 2.58 | – | –
23 | Cc1cc(C)cc(-n2nc(NC(=O)c3cccnc3)cc2C)c1 [Compound I-1-208] | 100 | 2.4 | – | –
24 | CSCn1nc(NC(=O)c2cccnc2)cc1C [Compound I-1-241] | 100 | 1.17 | 100 | –
25 | Cc1cc(NC(=O)c2cccnc2)nn1C(=O)NCc1cccc(F)c1 [Compound I-1-327] | 100 | 2.1 | 100 | –

Row | Structure (SMILES) | efficacy (kill in %) (Myzus persicae; [2]) [%] | log P (acid) ([1]; LC-MS in the acidic range) | efficacy (kill in %) (Myzus persicae; [3]) [%] | also measured
26 | O=C(Nc1nn(Cc2ncccn2)cc1F)c1cccnc1 [Compound I-1-267] | 100 | 0.42 | – | –
27 | O=C(Nc1ccn(Cc2cccc(OC(F)(F)F)c2)n1)c1cccnc1 [Compound I-1-73] | 100 | 2.20 | – | –
28 | Cc1nn(-c2ccccn2)nc1NC(=O)c1cccnc1 [Compound I-3-1, N-[5-Methyl-2-(pyridin-2-yl)-2H-1,2,3-triazol-4-yl]nicotinamide] | – | – | – | pest or weed control at 6 ppm (Myzus persicae; [3]): 100%; pest or weed control at 30 ppm (Myzus persicae; [2]): 100%; chromatographic logP ([1]; reversed-phase HPLC column (C18), pH 2.7, Table 3, HPLC on reversed-phase column (C 18), 55° C., acidic range (pH 2.7 or pH 2.3), read-out: log P (acid)): 1.08; chromatographic logP [1, 4]: 1.08
29 | Cc1cc(NC(=O)c2cccnc2)nn1C(=O)NC(C)c1ccccc1 (centres unmarked) [Compound I-1-331] | 100 | 2.22 | 100 | –
30 | Cn1nc(NC(=O)c2cccnc2)cc1OC(F)F [Compound I-1-111] | 100 | 0.89 | 100 | –
31 | CCc1cc(NC(=O)c2cccnc2)nn1Cc1ccccc1 [Compound I-1-35, N-(1-Benzyl-5-ethyl-1H-pyrazol-3-yl)nicotinamide] | – | – | – | pest or weed control at 30 ppm (Myzus persicae; [2]): 100%; chromatographic logP [1, 5]: 2.03; chromatographic logP [1, 6]: 2.03
32 | Cc1cc(NC(=O)c2cccnc2)nn1C(=O)NCc1ccncn1 [Compound I-1-336] | 100 | 1.05 | 100 | –
33 | O=C(Nc1ccn(Cc2cccc(F)c2)n1)c1cccnc1 [Compound I-1-70] | 100 | 1.59 | – | –
34 | Cc1cc(NC(=O)c2cccnc2)nn1-c1cccc(C#N)c1 [Compound I-1-217] | 100 | 1.59 | 100 | –
35 | Cc1noc(Cn2nc(NC(=O)c3cccnc3)cc2C)n1 [Compound I-1-284] | 100 | 0.92 | 100 | –
36 | Cc1cc(NC(=O)c2cccnc2)nn1Cc1ncc(Cl)cn1 [Compound I-1-195] | 100 | 1.23 | 100 | –
37 | Cc1cc(NC(=O)c2cncc(F)c2)nn1CC(F)(F)F [Compound I-1-135] | 100 | 1.79 | – | –
38 | Cc1nc2c(c(NC(=O)c3cncc(F)c3)nn2C)c(C)c1C [Compound I-1-57] | 100 | 1.6 | 100 | –
39 | CCOC(=O)c1ccc(Cn2ccc(NC(=O)c3cccnc3)n2)cc1 [Compound I-1-92] | 100 | 1.85 | – | –
40 | Cc1cc(NC(=O)c2cccnc2)nn1Cc1nnc(-c2ccccc2)o1 [Compound I-1-299] | 100 | 1.57 | 100 | –
41 | CCS(=O)(=O)n1nc(NC(=O)c2cccnc2)cc1C [Compound I-1-278] | 100 | 1.29 | – | –
42 | O=C(Nc1ccn(Cc2ncc(C(F)(F)F)cc2Cl)n1)c1cccnc1 [Compound I-1-116] | 100 | 1.86 | 100 | –
43 | O=C(Nc1ccn(Cc2ccc(F)cc2F)n1)c1cccnc1 [Compound I-1-76] | 100 | 1.68 | 100 | –
44 | Cc1cc(NC(=O)c2cccnc2)nn1C(=O)c1ccccc1Cl [Compound I-1-122, N-[1-(2-Chlorobenzoyl)-5-methyl-1H-pyrazol-3-yl]nicotinamide] | – | – | – | pest or weed control at 6 ppm (Myzus persicae; [3]): 100%; pest or weed control at 30 ppm (Myzus persicae; [2]): 100%; chromatographic logP [1, 5]: 2.27; chromatographic logP [1, 6]: 2.27
45 | Cc1cc(NC(=O)c2cccnc2)nn1Cc1ncccc1Cl [Compound I-1-37] | 100 | 1.42 | 100 | –
46 | CCCCNC(=O)n1nc(NC(=O)c2cccnc2)cc1C [Compound I-1-315] | 100 | 1.92 | 100 | –
47 | Cc1cc(NC(=O)c2cncc(F)c2)nn1-c1ccccc1 [Compound I-1-350] | 80 | 2.18 | – | –
48 | Cn1nnc(NC(=O)c2cccnc2)n1 [Compound I-4-2] | 100 | – | – | log P (acid) ([1]; Table 4, HPLC on reversed-phase column (C 18), 55° C., acidic range (pH 2.7 or pH 2.3)): <−0.23
49 | Cc1ccc(C)c(Cn2ccc(NC(=O)c3cccnc3)n2)c1 [Compound I-1-81] | 100 | 2.11 | – | –
